12 compounds from US6890940B2, “Bis(2-aryl-5-pyridyl) derivatives” (Kowa Co., Ltd., priority 2001, dated 2005) can be followed below.

pIC50: −log10 of the molar value. Where a name gives a salt, the structure may show the parent alone. Read-outs that look alike come from different tables or passages of the source. Marks after values point to notes of the source that are not given here.

The term pIC50 denotes −log10 of the IC50, conventionally taken in molar units.

One data set relates to IgE antibody production. In words: Evaluation of IgE antibody production inhibiting activity (mouse spleen B cells stimulated with LPS and IL-4, IgE in supernatant by ELISA). Type of data set: cell-based. The settings on record: B-cell; mouse (Balb/C) spleen B cells, LPS + mouse IL-4, drug added Day 1, IgE in culture supernatant by ELISA. The method, then:
Test 1 (Evaluation of IgE Antibody Production Inhibiting Activity)
From a mouse (Balb/C, male, 8 weeks old), the spleen was enucleated. The spleen was shredded in 10% FBS/RPMI 1640, and was then disintegrated into single cells through a 70-mesh screen. Those single cells were hemolyzed with Gey's solution, and using RPMI 1640 medium/25 mM HEPES/0.3% BSA, a spleen cell suspension (1×10^7 cells/mL) was prepared. After an aliquot of the suspension was reacted with a rat anti-mouse Thy-1.2 monoclonal antibody (product of Cedarlane Laboratories Limited) at 4° C. for 1 hour, centrifugation was conducted. Precipitated cells were suspended again (1×10^7 cells/mL, RPMI/HEPES/BSA). After the suspension was next reacted with a low-cytotoxic rabbit complement (product of Cedarlane Laboratories Limited) at 37° C. for 1 hour, dead cells were removed by specific gravity centrifugation using Lympholyte M (product of Cedarlane Laboratories Limited) so that a B cell fraction was obtained as viable cells. […]
The IgE antibody production inhibiting activity of each drug was calculated by adding the drug Day 1 of the incubation and assaying the quantity of IgE in the culture supernatant by ELISA after the incubation.

The nature of data set [1]: Solubility of each compound in water. In kind it is physicochemical. Conditions: in 1M hydrochloric acid (footnote *).
A short description of data set [2]: Solubility of each compound in water. Type of data set: physicochemical. The source says:
Further, the solubility (%) of each compound in water was also estimated.

Take `COc1cc(-c2ccc(N(C)CC(O)CN(C)c3ccc(-c4cc(OC)c(OC)c(OC)c4)nc3)cn2)cc(OC)c1OC` [Example 41, 2-hydroxy-N,N′-bis[2-(3,4,5-trimethoxyphenyl)-5-pyridyl]-N,N′-dimethyl-1,3-propanediamine]: in the data set on IgE antibody production, the pIC50 is 7.30. Further, the Solubility in data set [1] is recorded as 0.1* %.
Taken in the same sequence, the figures for `COc1cc(-c2ccc(N(C)CCCN(C)CCCN(C)c3ccc(-c4cc(OC)c(OC)c(OC)c4)nc3)cn2)cc(OC)c1OC` [Example 43, N,N-Bis[N-[2-(3,4,5-trimethoxyphenyl)-5-pyridyl]-N-methyl-3-aminopropyl]methylamine] were 7.00 and 10* %.
As for `COc1cc(-c2ccc(N(C)CCN(C)c3ccc(-c4cc(OC)c(O)c(OC)c4)nc3)cn2)cc(OC)c1O` [Example 14, N,N′-Bis[2-(4-hydroxy-3,5-dimethoxyphenyl)-5-pyridyl]-N,N′-dimethylethylenediamine dimethanesulfonate], the pIC50 in the data set with IgE antibody production was 7.40. The compound also yielded a Solubility in data set [2] of 0.1%.
Taken in the same sequence, the figures for `COc1cc(-c2ccc(N(C)CCN(C)c3ccc(-c4cc(OC)c(OC)c(OC)c4)nc3)cn2)cc(OC)c1OC` [Example 7, N,N′-Bis[2-(3,4,5-trimethoxyphenyl)-5-pyridyl]-N,N′-dimethylethylenediamine dimethanesulfonate] were 7.40 and 5%.
Taken in the same sequence, the figures for `CCN(CCN(CC)c1ccc(-c2cc(OC)c(OC)c(OC)c2)nc1)c1ccc(-c2cc(OC)c(OC)c(OC)c2)nc1` [Example 36, N,N′-Bis[2-(3,4,5-trimethoxyphenyl)-5-pyridyl]-N,N′-diethylethylenediamine dimethanesulfonate] were 7.52 and 10%.
Take `COc1cc(-c2ccc(N(C)CCCN(C)CCCN(C)c3ccc(-c4cc(OC)c(OCC(F)(F)F)c(OC)c4)nc3)cn2)cc(OC)c1OCC(F)(F)F` [Example 57, N,N-Bis[N-[2-(3,5-dimethoxy-4-(2,2,2-trifluoroethoxy)phenyl]-5-pyridyl]-N-methyl-3-aminopropyl]methylamine trihydrochloride]: the pIC50 in the data set with IgE antibody production was 7.00. The same compound had a Solubility in data set [2] of 1%.
For the compound `COc1cc(-c2ccc(N(C)CC(C)(C)CN(C)c3ccc(-c4cc(OC)c(OC)c(OC)c4)nc3)cn2)cc(OC)c1OC` [Example 39, N,N′-Bis[2-(3,4,5-trimethoxyphenyl)-5-pyridyl]-N,N′,2,2-tetramethyl-1,3-propanediamine dimethanesulfonate], in the data set with IgE antibody production, the pIC50 is 7.10. For the same compound, in data set [2], the Solubility was 10%.
For `COc1cc(-c2ccc(NCCOCCNc3ccc(-c4cc(OC)c(OC)c(OC)c4)nc3)cn2)cc(OC)c1OC` [Example 44, Bis[N-[2-(3,4,5-trimethoxyphenyl)-5-pyridyl]-2-aminoethyl]ether dimethanesulfonate], the pIC50 with IgE antibody production was 7.00. Besides, the Solubility in data set [2] turned out to be 10%.
In the same order, the values of `COc1cc(-c2ccc(N3CCCN(c4ccc(-c5cc(OC)c(OC)c(OC)c5)nc4)CC3)cn2)cc(OC)c1OC` [Example 30, 1,4-Bis[2-(3,4,5-trimethoxyphenyl)-5-pyridyl]hexahydro-1,4-diazepine dimethanesulfonate] are 7.00 and 0.1%.
In the same order, the values of `COc1cc(-c2ccc(N(C)CCN(C)CCN(C)c3ccc(-c4cc(OC)c(OC)c(OC)c4)nc3)cn2)cc(OC)c1OC` [Example 42, N,N-Bis[N-[2-(3,4,5-trimethoxyphenyl)-5-pyridyl]-N-methyl-2-aminoethyl]methylamine trihydrochloride.] are 7.00 and 10%.
In the same order, the values of `COc1cc(-c2ccc(N(C)CCCN(C)c3ccc(-c4cc(OC)c(OC)c(OC)c4)nc3)cn2)cc(OC)c1OC` [Example 37, N,N′-Bis[2-(3,4,5-trimethoxyphenyl)-5-pyridyl]-N,N′-dimethyl-1,3-propanediamine dimethanesulfonate] are 7.00 and 10%.
As for `COc1cc(-c2ccc(N3CCN(c4ccc(-c5cc(OC)c(OC)c(OC)c5)nc4)C(CN(C)C)C3)cn2)cc(OC)c1OC` (stereo not drawn) [Example 47, 2-(Dimethylamino)methyl-1,4-bis[2-(,3,4,5-trimethoxyphenyl)-5-pyridyl]piperazine trihydrochloride], the pIC50 with IgE antibody production is 7.30. Also, the Solubility in data set [2] amounted to 0.1%.
